From patent publication US20020028807A1, “Non-nucleoside reverse transcriptase inhibitors” (priority 2000, published 2002) come the findings set out here.

Assay type in all cases: cell-based, HIV-1
For test [1], the system named is HIV coding for mutant reverse transcriptase K103N. Put plainly: ELISA (p24) assay of HIV replication in C8166 cell culture, K103N virus. To be noted: Human immunodeficiency virus 1, C8166, 72 h, read-out: EC50 K103N. On the procedure:
(§1) Compounds of the invention were tested for their ability to inhibit HIV replication in cell culture in a 96-well plate assay. Complete RPMI 1640, consisting of RPMI 1640+10% fetal bovine serum, 10 μg/ml gentamycin and 10 μM β-mercaptoethanol was used for dilution of the compound as well as cell growth medium. The T lymphocyte cell line C8166 was infected at a multiplicity of infection of 0.001 with viruses coding for wild-type and mutant reverse transcriptase. Cells were then incubated for three days in the presence of serial dilutions of the compounds of the invention. The supernatant was pooled from eight replica wells and the concentration of extracellular p24 was determined using a commercially available HIV-1 p24 antigen assay kit (Beckman-Coulter®). The level of inhibition (% inhibition) was calculated with the following equation: [formula]

For test [2], the system named is HIV coding for mutant reverse transcriptase K103N/Y181C. The test is described as follows: ELISA (p24) assay of HIV replication in C8166 cell culture, K103N/Y181C virus. As to conditions: Human immunodeficiency virus 1, C8166, 72 h, read-out: EC50 K103N/Y181C. On the procedure: as §1
Test [3] relates to HIV coding for mutant reverse transcriptase K103N/L100I. The test is described as follows: ELISA (p24) assay of HIV replication in C8166 cell culture, K103N/L100I virus. To be noted: Human immunodeficiency virus 1, C8166, 72 h, read-out: EC50 K103N/L100I. On the procedure:
as §1
(ELISA stands for enzyme-linked immunosorbent assay.)

Take `CCN1c2ncc(CCOc3cc[n+]([O-])c4ccccc34)cc2C(=O)N(C)c2cccnc21` [compound 21, 5,11-Dihydro-11-ethyl-5-methyl-8-{2-{(1-oxido-4-quinolinyl)oxy}ethyl}-6H-dipyrido[3,2-b:2′,3′-e][1,4]diazepin-6-one]: the EC50 in test [1] was 3.5 nM; in test [2], 4.3 nM; in test [3] it was 5.9 nM.
For the compound `CCN1c2ncc(CCOc3cc[n+]([O-])c4ccccc34)cc2C(=O)N(C)c2ccc(F)nc21` [compound 11, 5,11-Dihydro-11-ethyl-2-fluoro-5-methyl-8-{2-{(1-oxido-4-quinolinyl)oxy}-ethyl}-6H-dipyrido[3,2-b:2′,3′-e][1,4]diazepin-6-one], the EC50 in test [1] stood at 2 nM; in test [2], 7.5 nM; in test [3], 3.2 nM.
For `CCN1c2ncc(CCOc3cc[n+]([O-])c4ccccc34)cc2C(=O)N(C)c2ccc(Cl)nc21` [compound 17, 2-Chloro-5,11-dihydro-11-ethyl-5-methyl-8-{2-{(1-oxido-4-quinolinyl)oxy}-ethyl}-6H-dipyrido[3,2-b:2′,3′-e][1,4]diazepin-6-one] the same measures were 1.5 nM, 2.3 nM and 1.2 nM.
